Patent publication US10898486B2, “Crystal form of orexin receptor antagonist compound, and preparation method and application thereof” (Shanghai Haiyan Pharmaceutical Technology Co., Ltd., priority 2015, dated 2021)
Values after ≈ are worked out from the molar mass of the structure shown.

Experiments:
[1] = Solubility of crystal form II in different aqueous media (37° C., 24 hours, HPLC); format: physicochemical; conditions: for Appearance: 10 mg in 1 mL
[2] = Solubility of crystal form I in different solvents (visual, room temperature); format: physicochemical
Description: Solubility Study of crystal form I of compound 5-3:1-1.5 mg of crystal form I of compound 5-3 was added to a flask at room temperature, a single organic solvent or a mixed solvent was added in small quantities and many times until the visual solution was clear or no solid particles were present, determined the solubility of crystal form I in different solvents, the results were shown in Table 2.

[3] = biological target: T1, hOX2R (Homo sapiens, UniProt O43614); test: In vitro test of OX2R: calcium signal change in HEK293-OX2 cells detected with FLIPR; format: cell-based
T1 construct: expressed in transfected cells
T1 sequence (O43614 1-444): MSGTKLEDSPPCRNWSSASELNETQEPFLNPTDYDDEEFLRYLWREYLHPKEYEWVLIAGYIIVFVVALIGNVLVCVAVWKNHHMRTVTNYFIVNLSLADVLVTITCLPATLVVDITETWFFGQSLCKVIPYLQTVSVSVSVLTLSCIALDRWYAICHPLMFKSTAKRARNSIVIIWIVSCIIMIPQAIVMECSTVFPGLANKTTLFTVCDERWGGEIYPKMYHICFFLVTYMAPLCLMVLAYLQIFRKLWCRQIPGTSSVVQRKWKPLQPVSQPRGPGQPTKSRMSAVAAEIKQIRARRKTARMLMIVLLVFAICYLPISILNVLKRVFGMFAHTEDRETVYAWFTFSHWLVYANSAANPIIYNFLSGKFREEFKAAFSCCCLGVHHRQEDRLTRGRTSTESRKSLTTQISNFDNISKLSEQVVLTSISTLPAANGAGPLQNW

[4] = biological target: T2, hOX1R (Homo sapiens, UniProt O43613); test: In vitro test of OX1R: calcium signal change in HEK293-OX1 cells detected with FLIPR; format: cell-based
T2 construct: expressed in transfected cells
T2 sequence (O43613 1-425): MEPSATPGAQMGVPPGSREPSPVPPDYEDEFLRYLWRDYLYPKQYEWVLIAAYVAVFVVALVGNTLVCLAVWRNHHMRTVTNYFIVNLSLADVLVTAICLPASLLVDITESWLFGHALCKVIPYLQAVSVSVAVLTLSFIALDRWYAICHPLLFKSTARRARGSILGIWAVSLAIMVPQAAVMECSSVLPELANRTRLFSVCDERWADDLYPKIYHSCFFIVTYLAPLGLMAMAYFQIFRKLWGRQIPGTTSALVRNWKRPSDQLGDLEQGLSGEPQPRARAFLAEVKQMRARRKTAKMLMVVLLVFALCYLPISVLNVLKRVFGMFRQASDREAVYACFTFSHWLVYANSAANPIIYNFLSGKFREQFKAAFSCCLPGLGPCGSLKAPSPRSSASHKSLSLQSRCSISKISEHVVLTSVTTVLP

[5] = Simulated fasting intestinal fluid
[6] = Simulated postprandial intestinal fluid

Cc1ccc(-c2ncccn2)c(C(=O)N2C3CCC2[C@@H](COc2ccc(F)cn2)CC3)c1 (stereo partly drawn) [crystal form II]
Crystal form of residual solid ([1]; 0.1N HCl): crystal form II
Final pH ([1]; 0.1N HCl): 0.80
Solubility (descriptive) ([1]; 0.1N HCl): Slightly soluble
Appearance ([1]; 0.1N HCl): turbid
Crystal form of residual solid ([1]; Simulate gastric fluid): crystal form II
Final pH ([1]; Simulate gastric fluid): 1.88
Solubility (descriptive) ([1]; Simulate gastric fluid): Slightly soluble
Appearance ([1]; Simulate gastric fluid): turbid
Crystal form of residual solid [1, 5]: crystal form II
Final pH [1, 5]: 6.65
Solubility (descriptive) [1, 5]: Slightly soluble
Appearance [1, 5]: turbid
Crystal form of residual solid [1, 6]: crystal form II
Final pH [1, 6]: 5.04
Solubility (descriptive) [1, 6]: Slightly soluble
Appearance [1, 6]: turbid
solubility at 24 h ([1]; pH 0.8, simulated gastric fluid, thermodynamic from solid, 0.1N HCl): 0.42 mg/mL (≈ 0.971 mM)
solubility at 24 h ([1]; pH 1.88, simulated gastric fluid, thermodynamic from solid, Simulate gastric fluid): 0.27 mg/mL (≈ 0.624 mM)
solubility at 24 h ([1]; pH 5.04, fessif, thermodynamic from solid, Simulated postprandial intestinal fluid): 0.29 mg/mL (≈ 0.671 mM)
solubility at 24 h ([1]; pH 6.65, fassif, thermodynamic from solid, Simulated fasting intestinal fluid): 0.18 mg/mL (≈ 0.416 mM)
solubility at 24 h ([1]; pH 7.95, thermodynamic from solid, water): 0.14 mg/mL (≈ 0.324 mM)
Crystal form of residual solid ([1]; water): crystal form II
Final pH ([1]; water): 7.95
Solubility (descriptive) ([1]; water): Slightly soluble
Appearance ([1]; water): turbid

Cc1ccc(-c2ncccn2)c(C(=O)N2C3CCC2[C@@H](COc2ccc(F)cn2)CC3)c1 (stereo partly drawn) [crystal form I]
solubility ([2]; organic solvent or mixture, thermodynamic from solid, 1,4-dioxane): > 57 mg/mL
solubility ([2]; organic solvent or mixture, thermodynamic from solid, ACN): 20 to 50 mg/mL (≈ 46.2 to 116 mM)
solubility ([2]; organic solvent or mixture, thermodynamic from solid, Acetone): > 52 mg/mL
solubility ([2]; organic solvent or mixture, thermodynamic from solid, EtOAc): 19 to 48 mg/mL (≈ 43.9 to 111 mM)
solubility ([2]; organic solvent or mixture, thermodynamic from solid, EtOH): 22 to 55 mg/mL (≈ 50.9 to 127 mM)
solubility ([2]; organic solvent or mixture, thermodynamic from solid, IPA): 10 to 20 mg/mL (≈ 23.1 to 46.2 mM)
solubility ([2]; organic solvent or mixture, thermodynamic from solid, MEK): > 54 mg/mL
solubility ([2]; organic solvent or mixture, thermodynamic from solid, MIBK): 24 to 60 mg/mL (≈ 55.5 to 139 mM)
solubility ([2]; organic solvent or mixture, thermodynamic from solid, MTBE): < 1 mg/mL
solubility ([2]; organic solvent or mixture, thermodynamic from solid, MeOH): > 53 mg/mL
solubility ([2]; organic solvent or mixture, thermodynamic from solid, MeOH—H2O (3:1)): 18 to 46 mg/mL (≈ 41.6 to 106 mM)
solubility ([2]; organic solvent or mixture, thermodynamic from solid, THF): > 53 mg/mL
solubility ([2]; organic solvent or mixture, thermodynamic from solid, Toluene): > 54 mg/mL
solubility ([2]; organic solvent or mixture, thermodynamic from solid, n-butanol): 22 to 55 mg/mL (≈ 50.9 to 127 mM)
solubility ([2]; thermodynamic from solid, water): < 1 mg/mL

Cc1ccc(-c2ncccn2)c(C(=O)N2C3CCC2[C@@H](COc2ccc(F)cn2)CC3)c1 (stereo partly drawn) [Compound 5-3]
IC50 [3]: < 50 nM
IC50 [4]: < 50 nM
